Laboratory results: patent US7807350B2 (The University of Chicago, priority 2003, dated 2010)
Where two headings read alike, the source gives them in different places.

What was measured:
[1] = cited from earlier work
[2] = Objective tumor response in the irinotecan 350 mg/m2 every 3 weeks trial; type: in vivo, human
Protocol: History, physical examination, complete blood count (CBC) with differential, serum chemistry profile (electrolytes, blood urea nitrogen, creatinine, glucose, albumin, alkaline phosphatase, GGTP, AST, ALT, total and conjugated bilirubin, uric acid, and lactate dehydrogenase), and coagulation profile (prothrombin time and partial thromboplastin time) were conducted prior to first treatment. Thereafter, history, physical examination, and toxicity assessment were conducted on day 1 of each cycle unless treatment-related toxicity required more frequent follow up. CBC and serum chemistry profile were obtained weekly throughout treatment, though CBCs were obtained 3 times per week with the appearance of grade 3 or 4 neutropenia or thrombocytopenia. Toxicity assessment was done according to the NCI common toxicity criteria, version 2.0 (website: ctep.cancer.gov). Objective tumor assessment by appropriate radiographic imaging was performed prior to starting therapy and after every 2 cycles.

[3] = Toxicity (neutropenia, diarrhea, toxic death) in cycle 1 of irinotecan 350 mg/m2 every 3 weeks in cancer patients, by UGT1A1 genotype; conditions: for frequency of grade 4 neutropenia: cycle 1
[4] = Pharmacokinetic analysis of plasma irinotecan, SN-38 and SN-38G in patients, by TA indel genotype; type: in vivo, human; conditions: for SN-38G AUC (mean) / SN-38 AUC (mean): after irinotecan
Protocol: Samples of 7 ml were collected into green top sodium heparinized Vacutainer® tubes prior to the infusion; 30, 60, and 90 minutes during the infusion; and 10, 20, 30, 45, and 60 minutes and 1.5, 2, 4, 6, 12, and 24 hours after the infusion. Samples were centrifuged (2500 rpm, 20 min, 4° C.) and the plasma was immediately separated, transferred as two aliquots into storage tubes, frozen at −80° C. until analysis.

[5] = relative to irinotecan; cited from earlier work
[6] = 6/6 TA indel genotype, 30 patients
[7] = 6/7 TA indel genotype, 25 patients
[8] = 7/7 TA indel genotype, 6 patients

Structure (SMILES): CCc1c2c(nc3ccc(OC(=O)N4CCC(N5CCCCC5)CC4)cc13)-c1cc3c(c(=O)n1C2)COC(=O)[C@]3(O)CC [irinotecan, 7-ethyl-10-[4-(1-piperidino)-1-piperidino]carbonyloxycamptothecin]
- patients with grade 3-4 diarrhea ([1]; early single agent trials, dose limiting): about one third
- frequency of grade 3-4 diarrhea ([1]; three-weekly regimen): 19%
- mortality rate ([1]; three-weekly single agent regimen): 1.6%
- frequency of grade 3-4 diarrhea ([1]; weekly schedule): 36%
- mortality rate ([1]; weekly single agent regimen): 5.3%
- objective responses ([2]; 60 patients assessable for response): 3
- patients achieving a partial response ([2]; colorectal and head and neck cancer, 6/7 genotype): Two
- patients achieving a complete response ([2]; colorectal cancer, 6/6 genotype): One
- toxic death ([3]; neutropenia-related sepsis, day 11 of cycle 1, 7/7 genotype): One toxic death
- frequency of grade 4 neutropenia ([3]; patients with 6/6 genotype (0/30)): 0%
- frequency of grade 4 neutropenia ([3]; patients with 7/7 genotype (3/6)): 50%
- cases of grade 4 neutropenia ([3]; patients with pretreatment bilirubin less than 0.6 mg/dl): No cases

Structure (SMILES): CCc1c2c(nc3ccc(O[C@@H]4O[C@H](C(=O)O)[C@@H](O)[C@H](O)[C@H]4O)cc13)-c1cc3c(c(=O)n1C2)COC(=O)[C@]3(O)CC [SN-38G, 10-O-glucuronyl-SN-38]
- SN-38G AUC (mean) [4, 6]: 1954.2 ng·h/mL
- SN-38G AUC (mean) [4, 7]: 1887.9 ng·h/mL
- SN-38G AUC (mean) [4, 8]: 1819.1 ng·h/mL

Structure (SMILES): CCc1c2c(nc3ccc(O)cc13)-c1cc3c(c(=O)n1C2)COC(=O)[C@]3(O)CC [SN-38, 7-ethyl-10-hydroxycamptothecin]
- Glucuronidation Ratio (SN-38G AUC/SN-38 AUC) [4, 6]: 6.52
- SN-38 AUC (mean) [4, 6]: 335.9 ng·h/mL
- Glucuronidation Ratio (SN-38G AUC/SN-38 AUC) [4, 7]: 5.55
- SN-38 AUC (mean) [4, 7]: 458.4 ng·h/mL
- Glucuronidation Ratio (SN-38G AUC/SN-38 AUC) [4, 8]: 3.59
- SN-38 AUC (mean) [4, 8]: 542.0 ng·h/mL
- antitumor activity higher than irinotecan [5]: 100-1,000 fold
